Data published in patent US20230002374A1, “GPR52 MODULATOR COMPOUNDS” (Heptares Therapeutics Limited, priority 2019, published 2023).
Read-outs that look alike come from different tables or passages of the source.

Target: human GPR52 (Homo sapiens, UniProt Q9Y2T5)
Assay: GPR52 Agonist Functional cAMP Assay;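 note: HEKf cells transduced with GPR52 BacMam for 24 h, 2000 per well, exposed to compounds 30 min at 37° C with 0.5 mM IBMX, cAMP read by HTRF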
Conditions: for EC50: pEC50 average, HEKf cells infected with human GPR52 BacMam virus, cAMP HTRF, 30 min at 37° C.
[1] = maximal response normalised to DMSO (0%) and maximal compound 7m (J. Med. Chem., 2014, 57, 5226) response (100%)

Chain of human GPR52 (Q9Y2T5 whole entry): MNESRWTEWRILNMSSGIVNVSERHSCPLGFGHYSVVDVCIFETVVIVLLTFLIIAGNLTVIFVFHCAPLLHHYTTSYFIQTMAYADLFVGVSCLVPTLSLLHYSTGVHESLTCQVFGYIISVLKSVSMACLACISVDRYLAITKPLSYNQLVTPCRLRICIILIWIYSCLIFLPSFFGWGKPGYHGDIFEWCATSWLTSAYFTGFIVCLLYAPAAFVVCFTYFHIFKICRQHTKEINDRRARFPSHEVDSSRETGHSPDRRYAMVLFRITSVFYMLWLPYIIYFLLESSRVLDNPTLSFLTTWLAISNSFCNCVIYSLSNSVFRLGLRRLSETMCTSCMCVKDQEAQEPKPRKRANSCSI

| SMILES | Emax [1] [%] | EC50 [nM] | Emax [%] |
| --- | --- | --- | --- |
| Cc1nn(-c2cc(C(O)c3cc(F)cc(C(F)(F)F)c3)ccn2)c2c1C(=O)NCC2 (single isomer, unassigned) [118 Isomer 1, 1-(4-((3-fluoro-5-(trifluoromethyl)phenyl)(hydroxy)methyl)pyridin-2-yl)-3-methyl-1,5,6,7-tetrahydro-4H-pyrazolo[4,3-c]pyridin-4-one] | 94 | 126 |  |
| CC1Cc2c(cnn2-c2ccnc(Cc3cc(F)cc(C(F)(F)F)c3)c2)C(=O)N1 (single isomer, unassigned) [Example 40 Isomer 1, 1-(2-(3-fluoro-5-(trifluoromethyl)benzyl)pyridin-4-yl)-6-methyl-1,5,6,7-tetrahydro-4H-pyrazolo[4,3-c]pyridin-4-one] | 95 | 31.6 |  |
| O=C1NCCOc2c1cnn2-c1cc(Cc2cc(F)cc(C(F)(F)F)c2)ccn1 [Example 14, 1-(4-(3-fluoro-5-(trifluoromethyl)benzyl)pyridin-2-yl)-6,7-dihydro-1H-pyrazolo[4,3-f][1,4]oxazepin-4(5H)-one] | 103 | 10 |  |
| O=C1NCCc2c1cnn2-c1cc(Cc2cc(F)cc(C(F)(F)F)c2)cnn1 [Example 15, 1-(5-(3-fluoro-5-(trifluoromethyl)benzyl)pyridazin-3-yl)-1,5,6,7-tetrahydro-4H-pyrazolo[4,3-c]pyridin-4-one] | 95 | 126 |  |
| O=C1NCCc2c1cnn2-c1cnnc(Cc2cc(F)cc(C(F)(F)F)c2)c1 [Example 17, 1-(6-(3-fluoro-5-(trifluoromethyl)benzyl)pyridazin-4-yl)-1,5,6,7-tetrahydro-4H-pyrazolo[4,3-c]pyridin-4-one] | 96 | 1260 |  |
| O=C1NCCc2c1cnn2-c1ccnc(Cc2ccc(Cl)cc2)c1 [Example 19, 1-(2-(4-chlorobenzyl)pyridin-4-yl)-1,5,6,7-tetrahydro-4H-pyrazolo[4,3-c]pyridin-4-one] |  | 631 | 73 |
| O=C1NCCc2c1cnn2-c1ccnc(Cc2cc(F)cc(Cl)c2)c1 [Example 20, 1-(2-(3-chloro-5-fluorobenzyl)pyridin-4-yl)-1,5,6,7-tetrahydro-4H-pyrazolo[4,3-c]pyridin-4-one] | 101 | 158 |  |
| O=C1NCCc2c1cnn2-c1ccnc(Cc2cc(F)cc(F)c2)c1 [Example 21, 1-(2-(3,5-difluorobenzyl)pyridin-4-yl)-1,5,6,7-tetrahydro-4H-pyrazolo[4,3-c]pyridin-4-one] | 100 | 1260 |  |
| O=C1NCCc2c1cnn2-c1ccnc(Cc2cccc(C(F)(F)F)c2)c1 [Example 22, 1-(2-(3-(trifluoromethyl)benzyl)pyridin-4-yl)-1,5,6,7-tetrahydro-4H-pyrazolo[4,3-c]pyridin-4-one] | 91 | 200 |  |
| Cc1cc(F)cc(Cc2cc(-n3ncc4c3CCNC4=O)ccn2)c1 [Example 26, 1-(2-(3-fluoro-5-methylbenzyl)pyridin-4-yl)-1,5,6,7-tetrahydro-4H-pyrazolo[4,3-c]pyridin-4-one] | 95 | 79.4 |  |
| O=C1NCCc2c1cnn2-c1ccnc(Cc2cc(Cl)cc(C(F)(F)F)c2)c1 [Example 27, 1-(2-(3-chloro-5-(trifluoromethyl)benzyl)pyridin-4-yl)-1,5,6,7-tetrahydro-4H-pyrazolo[4,3-c]pyridin-4-one] | 90 | 79.4 |  |
| O=C1NCCc2c1cnn2-c1ccnc(Cc2cc(C(F)(F)F)ccc2F)c1 [Example 30, 1-(2-(2-fluoro-5-(trifluoromethyl)benzyl)pyridin-4-yl)-1,5,6,7-tetrahydro-4H-pyrazolo[4,3-c]pyridin-4-one] | 77 | 794 |  |
| O=C1NCCc2c1cnn2-c1ccnc(Cc2ccc(C(F)(F)F)cc2)c1 [Example 32, 1-(2-(4-(trifluoromethyl)benzyl)pyridin-4-yl)-1,5,6,7-tetrahydro-4H-pyrazolo[4,3-c]pyridin-4-one] | 61 | 398 |  |
| O=C1NCCc2c1cnn2-c1ccnc(Cc2cc(C(F)(F)F)cc(C(F)(F)F)c2)c1 [Example 34, 1-(2-(3,5-bis(trifluoromethyl)benzyl)pyridin-4-yl)-1,5,6,7-tetrahydro-4H-pyrazolo[4,3-c]pyridin-4-one] | 54 | 1000 |  |

Further compounds by falling EC50, results first:

| Emax [1] [%] | EC50 [nM] | SMILES | Emax [%] |
| --- | --- | --- | --- |
| 58 | 3160 | N#Cc1cc(Cc2cc(-n3ncc4c3CCNC4=O)ccn2)cc(C(F)(F)F)c1 [Example 33, 3-((4-(4-oxo-4,5,6,7-tetrahydro-1H-pyrazolo[4,3-c]pyridin-1-yl)pyridin-2-yl)methyl)-5-(trifluoromethyl)benzonitrile] |  |
| 40 | 3160 | O=C(c1cc(F)cc(C(F)(F)F)c1)c1cc(-n2ncc3c2CCNC3=O)ccn1 [Example 35, 1-(2-(3-fluoro-5-(trifluoromethyl)benzoyl)pyridin-4-yl)-1,5,6,7-tetrahydro-4H-pyrazolo[4,3-c]pyridin-4-one] |  |
| 57 | 2510 | O=C1NCCc2c1cnn2-c1ccnc(Cc2cccc(C(F)(F)F)c2F)c1 [Example 29, 1-(2-(2-fluoro-3-(trifluoromethyl)benzyl)pyridin-4-yl)-1,5,6,7-tetrahydro-4H-pyrazolo[4,3-c]pyridin-4-one] |  |
| 55 | 631 | O=C1NCCc2c1cnn2-c1ccnc(C(F)(F)c2cc(F)cc(C(F)(F)F)c2)c1 [Example 38, 1-(2-(difluoro(3-fluoro-5-(trifluoromethyl)phenyl)methyl)pyridin-4-yl)-1,5,6,7-tetrahydro-4H-pyrazolo[4,3-c]pyridin-4-one] |  |
| 82 | 501 | Cc1cc(Cc2ccnc(-n3ncc4c3CCNC4=O)c2)cnc1F [Example 6, 1-(4-((6-fluoro-5-methylpyridin-3-yl)methyl)pyridin-2-yl)-1,5,6,7-tetrahydro-4H-pyrazolo[4,3-c]pyridin-4-one] |  |
| 92 | 501 | O=C1NCCc2c1cnn2-c1ccnc(C(O)c2cc(F)cc(C(F)(F)F)c2)c1 (stereo not drawn) [Example 36, 1-(2-((3-fluoro-5-(trifluoromethyl)phenyl)(hydroxy)methyl)pyridin-4-yl)-1,5,6,7-tetrahydro-4H-pyrazolo[4,3-c]pyridin-4-one] |  |
| 75 | 316 | O=C1NCCc2nn(-c3cc(Cc4cccc(C(F)(F)F)c4)ccn3)cc21 [Example 8, 2-(4-(3-(trifluoromethyl)benzyl)pyridin-2-yl)-2,5,6,7-tetrahydro-4H-pyrazolo[4,3-c]pyridin-4-one] |  |
| 95 | 316 | O=C1NCCc2c1cnn2-c1ccnc(Cc2cc(F)c(F)c(F)c2)c1 [Example 24, 1-(2-(3,4,5-trifluorobenzyl)pyridin-4-yl)-1,5,6,7-tetrahydro-4H-pyrazolo[4,3-c]pyridin-4-one] |  |
| 83 | 251 | Cc1nn(-c2ccnc(C(O)c3cc(F)cc(C(F)(F)F)c3)c2)c2c1C(=O)NCC2 (single isomer, unassigned) [117 Isomer 1, 1-(2-((3-fluoro-5-(trifluoromethyl)phenyl)(hydroxy)methyl)pyridin-4-yl)-3-methyl-1,5,6,7-tetrahydro-4H-pyrazolo[4,3-c]pyridin-4-one] |  |
| 83 | 200 | Cc1cc(Cc2ccnc(-n3ncc4c3CCN(C)C4=O)c2)cnc1F [Example 7, 1-(4-((6-fluoro-5-methylpyridin-3-yl)methyl)pyridin-2-yl)-5-methyl-1,5,6,7-tetrahydro-4H-pyrazolo[4,3-c]pyridin-4-one] |  |
| 90 | 158 | O=C1NCCc2c1cnn2-c1ccnc(Cc2ccc(F)c(C(F)(F)F)c2)c1 [Example 23, 1-(2-(4-fluoro-3-(trifluoromethyl)benzyl)pyridin-4-yl)-1,5,6,7-tetrahydro-4H-pyrazolo[4,3-c]pyridin-4-one] |  |
| 89 | 158 | O=C1NCCc2c1cnn2-c1ccnc(Cc2ccc(F)c(Cl)c2)c1 [Example 25, 1-(2-(3-chloro-4-fluorobenzyl)pyridin-4-yl)-1,5,6,7-tetrahydro-4H-pyrazolo[4,3-c]pyridin-4-one] |  |
| 95 | 126 | O=C1NCCc2c1cnn2-c1ccnc(Cc2cc(Cl)cc(Cl)c2)c1 [Example 31, 1-(2-(3,5-dichlorobenzyl)pyridin-4-yl)-1,5,6,7-tetrahydro-4H-pyrazolo[4,3-c]pyridin-4-one] |  |
| 93 | 126 | O=C1NCCc2c1cnn2-c1ccnc(C(F)c2cc(F)cc(C(F)(F)F)c2)c1 (stereo not drawn) [Example 37, 1-(2-(fluoro(3-fluoro-5-(trifluoromethyl)phenyl)methyl)pyridin-4-yl)-1,5,6,7-tetrahydro-4H-pyrazolo[4,3-c]pyridin-4-one] |  |
| 88 | 100 | Cc1cc(Cc2cc(-n3ncc4c3CCNC4=O)ccn2)cc(C(F)(F)F)c1 [Example 28, 1-(2-(3-methyl-5-(trifluoromethyl)benzyl)pyridin-4-yl)-1,5,6,7-tetrahydro-4H-pyrazolo[4,3-c]pyridin-4-one] |  |
| 82 | 79.4 | O=C1NCCc2c1cnn2-c1cc(Oc2cc(F)cc(C(F)(F)F)c2)ccn1 [Example 18, 1-(4-(3-fluoro-5-(trifluoromethyl)phenoxy)pyridin-2-yl)-1,5,6,7-tetrahydro-4H-pyrazolo[4,3-c]pyridin-4-one] |  |
| 86 | 63.1 | O=C1NCCCc2c1cnn2-c1cc(Cc2cccc(C(F)(F)F)c2)ccn1 [Example 11, 1-(4-(3-(trifluoromethyl)benzyl)pyridin-2-yl)-5,6,7,8-tetrahydropyrazolo[4,3-c]azepin-4(1H)-one] |  |
| 89 | 25.1 | O=C1NCCOc2c1cnn2-c1cc(Cc2cccc(C(F)(F)F)c2)ccn1 [Example 13, 1-(4-(3-(trifluoromethyl)benzyl)pyridin-2-yl)-6,7-dihydro-1H-pyrazolo[4,3-f][1,4]oxazepin-4(5H)-one] |  |
| 90 | 7.94 | O=C1NCCCc2c1cnn2-c1cc(Cc2cc(F)cc(C(F)(F)F)c2)ccn1 [Example 10, 1-(4-(3-fluoro-5-(trifluoromethyl)benzyl)pyridin-2-yl)-5,6,7,8-tetrahydropyrazolo[4,3-c]azepin-4(1H)-one] |  |
